Calls of active or inactive are those of the source. The calls are words filed in the database; no cut-off is given here.

Data set [1] relates to hCMEC/D3. Briefly: Cytoprotective activity in human CMEC/D3 cells assessed as inhibition of SIN-1-induced oxidative stress-mediated toxicity by measuring cell viability at 100 nM preincubated for 1 hr followed by SIN-1 induction measured after 24 hrs by Alamar blue assay. It is filed as functional, cell-based. On the technique in general: Alamar Blue is a resazurin reagent that responds to reducing activity.

Data set [2] has as its system hCMEC/D3. In words: Cytoprotective activity in human CMEC/D3 cells assessed as inhibition of H2O2-induced oxidative stress-mediated toxicity by measuring cell viability at 100 nM preincubated for 1 hr followed by H2O2 induction measured after 24 hrs by Alamar blue assay. It counts as functional, cell-based.
In data set [3] the test system is hCMEC/D3. Briefly: Cytoprotective activity in human CMEC/D3 cells assessed as inhibition of 4-HNE-induced oxidative stress-mediated toxicity by measuring cell viability at 100 nM preincubated for 1 hr followed by 4-HNE induction measured after 24 hrs by Alamar blue assay. It counts as functional, cell-based.
Data set [4] relates to hCMEC/D3. In words: Cytoprotective activity in human CMEC/D3 cells assessed as inhibition of SIN-1-induced oxidative stress-mediated toxicity by measuring cell viability at 100 nM preincubated for 1 hr followed by SIN-1 induction measured after 24 hrs by Alamar blue assay in presence of 5-(4-hydroxyphenyl)-3H-1,2-dithiole-3-thione. It is filed as functional, cell-based.
The subject of data set [5] is hCMEC/D3. In words: Cytoprotective activity in human CMEC/D3 cells assessed as inhibition of H2O2-induced oxidative stress-mediated toxicity by measuring cell viability at 100 nM preincubated for 1 hr followed by H2O2 induction measured after 24 hrs by Alamar blue assay in presence of 5-(4-hydroxyphenyl)-3H-1,2-dithiole-3-thione. It is filed as functional, cell-based.

In data set [6] the test system is hCMEC/D3. Briefly: Cytoprotective activity in human CMEC/D3 cells assessed as inhibition of 4-HNE-induced oxidative stress-mediated toxicity by measuring cell viability at 100 nM preincubated for 1 hr followed by 4-HNE induction measured after 24 hrs by Alamar blue assay in presence of 5-(4-hydroxyphenyl)-3H-1,2-dithiole-3-thione. It is filed as functional, cell-based.

Data set [7] relates to hCMEC/D3. Briefly: Induction of H2S production in human CMEC/D3 cells after 1 hr by WSP-1 probe-based fluorescence assay. It is filed as functional, cell-based.
Data set [8] is filed under the species Mus musculus. In words: Induction of H2S production in mouse bEND.3 cells at 100 nM after 1 hr by AzMC fluorescent probe-based inverted microscopic analysis. It counts as functional, cell-based.
The species named for data set [9] is Mus musculus. Briefly: Induction of H2S production in mitochondria of mouse bEND.3 cells at 100 nM after 1 hr by MitoTracker Red fluorescent probe-based inverted microscopic analysis. It is filed as functional.
Data set [10] can be described thus: Cytotoxicity against human CMEC/D3 cells up to 5 uM after 24 hrs by Alamar blue assay relative to vehicle-treated control. It counts as cell-based. The note with it: hcmec/d3, 24 h.
The subject of data set [11] is hCMEC/D3. In words: Cytoprotective activity in human CMEC/D3 cells assessed as inhibition of SIN-1-induced oxidative stress-mediated loss of mitochondrial membrane potential at 100 nM preincubated for 1 hr followed by SIN-1 induction measured after 24 hrs by TMRM fluorescent probe-based fluorimetric analysis. It counts as functional, cell-based.
In data set [12] the test system is hCMEC/D3. Briefly: Cytoprotective activity in human CMEC/D3 cells assessed as inhibition of H2O2-induced oxidative stress-mediated loss of mitochondrial membrane potential at 100 nM preincubated for 1 hr followed by H2O2 induction measured after 24 hrs by TMRM fluorescent probe-based fluorimetric analysis. It counts as functional, cell-based.
Data set [13] relates to hCMEC/D3. Briefly: Cytoprotective activity in human CMEC/D3 cells assessed as inhibition of 4-HNE-induced oxidative stress-mediated loss of mitochondrial membrane potential at 100 nM preincubated for 1 hr followed by 4-HNE induction measured after 24 hrs by TMRM fluorescent probe-based fluorimetric analysis. It is filed as functional, cell-based.
Data set [14] relates to hCMEC/D3. In words: Cytoprotective activity in human CMEC/D3 cells assessed as inhibition of SIN-1-induced mitochondrial production of reactive oxygen species at 100 nM preincubated for 1 hr followed by SIN-1 induction measured after 24 hrs by MitoSox Red probe-based fluorescence assay. It counts as functional, cell-based.
Data set [15] deals with hCMEC/D3. Briefly: Cytoprotective activity in human CMEC/D3 cells assessed as inhibition of H2O2-induced mitochondrial production of reactive oxygen species at 100 nM preincubated for 1 hr followed by H2O2 induction measured after 24 hrs by MitoSox Red probe-based fluorescence assay. It counts as functional, cell-based.
For data set [16], the system named is hCMEC/D3. In words: Cytoprotective activity in human CMEC/D3 cells assessed as inhibition of 4-HNE-induced mitochondrial production of reactive oxygen species at 100 nM preincubated for 1 hr followed by 4-HNE induction measured after 24 hrs by MitoSox Red probe-based fluorescence assay. It counts as functional, cell-based.
Data set [17] can be described thus: Cytotoxicity against human CMEC/D3 cells assessed as effect on mitochondrial membrane potential at 100 nM by TMRM fluorescent probe-based fluorimetric analysis. It counts as cell-based. The note with it: hcmec/d3, 0.1 µM.
Data set [18] in a line: Cytotoxicity against human CMEC/D3 cells assessed as effect on mitochondrial oxidant production at 100 nM by MitoSox Red probe-based fluorescence assay. It is filed as cell-based. The note with it: hcmec/d3, 0.1 µM.
Data set [19] has as its system hCMEC/D3. In words: Cytoprotective activity in human CMEC/D3 cells assessed as inhibition of rotenone-induced mitochondrial production of reactive oxygen species at 100 nM preincubated for 1 hr followed by rotenone induction by MitoSox Red probe-based fluorescence assay. It counts as functional, cell-based.
In data set [20] the test system is hCMEC/D3. In words: Cytoprotective activity in human CMEC/D3 cells assessed as inhibition of rotenone-mediated reduction of ATP level at 100 nM preincubated for 1 hr followed by rotenone induction measured after 18 hrs by firefly lantern luciferase reporter assay. It is filed as functional, cell-based.

For the compound `O=C(O)CCCCCCCCC[P+](c1ccccc1)(c1ccccc1)c1ccccc1`, the inhibition entry with hCMEC/D3 [1], in the data set on hCMEC/D3 [2], in the data set with hCMEC/D3 [3], in the data set with hCMEC/D3 [4], in the data set with hCMEC/D3 [5] and in the data set with hCMEC/D3 [6] was “inactive” each time.

`O=C(CCCCCCCCC[P+](c1ccccc1)(c1ccccc1)c1ccccc1)Oc1ccc(-c2cc(=S)ss2)cc1.[Br-]`: the Activity entry with hCMEC/D3 [7] is “Dose-dependent effect”; in data set [10] it was “Non-toxic”; in data set [17] it was “Non-toxic”; in data set [18], “Non-toxic”. Also, the outcome in the data set listed under Mus musculus [8] and in the data set listed under Mus musculus [9] was Active. Also, the inhibition entry with hCMEC/D3 [11], in the data set with hCMEC/D3 [12], with hCMEC/D3 [13], in the data set with hCMEC/D3 [14], in the data set on hCMEC/D3 [15] and in the data set on hCMEC/D3 [16] was “Active” each time. Besides, the inhibition entry with hCMEC/D3 [19] and in the data set on hCMEC/D3 [20] was “Active” throughout.

On to `Oc1ccc(-c2cc(=S)ss2)cc1`, for which the inhibition result in the data set on hCMEC/D3 [1], with hCMEC/D3 [2] and in the data set with hCMEC/D3 [3] was “inactive” throughout.

(Values after ChEMBL document CHEMBL3580625, “The synthesis and functional evaluation of a mitochondria-targeted hydrogen sulfide donor, (10-oxo-10-(4-(3-thioxo-3H-1,2-dithiol-5-yl)phenoxy)decyl)triphenylphosphonium bromide (AP39)” (Medchemcomm, 2014).)
